{"source": "patent US20120214824A1", "about": "“PROTEOSTASIS REGULATORS” (priority 2010, published 2012)", "key": {"firefly luciferase": {"tested_on": "firefly luciferase", "assay": "Luciferase folding assay (Lucif.)", "format": "cell-based, human", "conditions": "HeLa-luciferase cells; Table 1a", "source_text": "Firefly luciferase is a commonly used bioluminescent reporter. This monomeric enzyme of 61 kDa catalyzes a two-step oxidation reaction to yield light, usually in the green to yellow region, typically 550-570 nm. The first step of this reaction is activation of the luciferyl carboxylate by ATP to yield a reactive mixed anhydride. In the second step, the activated intermediate reacts with oxygen to create a transient dioxetane that breaks down to the oxidized products, oxyluciferin and CO2. Upon mixing with substrates, firefly luciferase produces an initial burst of light that decays over about 15 seconds to a low level of sustained luminescence. This kinetic profile reflects the slow release of the enzymatic product, thus limiting catalytic turnover after the initial reaction.\nThis mammalian cell based assay that used firefly luciferase as a sensor was used to screen for compounds that may modulate the cellular folding environment.\nHeLa luciferase cell lines: Frozen bullets containing the cells were thawed briefly at 37° C. then placed into a T-150 flask containing 30-35 ml DMEM medium+Penicillin/Strep (1% final+10% FBS (final)+Geneticin @ 200-500 ug/ml. Cell cultures were maintained at 37° C. with 5% CO2 and water in the bottom of the incubator to keep cells healthy. Upon expanding cell line, luciferase measurements were taken to make sure that activity levels were between 2000-5000 (RLU) when plated at 15K/well in a 96-well format (Bright-Glo Promega) before compound treatment.\nCompound treatment of HeLa-luciferase cells: HeLa-luciferase WT cells were plated in a 96-well format at 15K/well the day prior to performing compound treatment and/or luciferase assay. […] Final volume used per well was 90 uL. Flat bottom, white polystyrene plates were used for plating the cells.\nFor compound treatment, stocks of compounds were made up at 10 mM concentration in DMSO. Stocks compounds were diluted by 100× fold in the same media used for culturing the cells—this leads to a 0.1 mM (or 100 uM) concentration. After diluting the compound in media, 10 uL of the 100 uM solution was placed into each well of cells (90 uL); making the final concentration of the compound 10 uM. If serial dilutions of compounds were tested, serial dilutions of compounds were first made in DMSO accordingly, and further diluted in the media, prior to adding to cells. This procedure allowed for constant final levels of DMSO concentrations, regardless of initial compound concentration.\nPerforming luciferase activity assay: Bright-Glo Luciferase Assay Reagent (Promega cat #: E2610, E2620, E2650) was thawed out at RT in a water bath. Alternatively, Bright-Glo Luciferase assay buffer (prior to mixing with substrate) was stored overnight at RT, prior to using.\nFollowing compound treatment, plates were removed from 37° C. and allowed to acclimate to RT for 5-10 min. Bright-Glo reagent was added to each cell-containing well in a 1:1 ratio (e.g., 100 uL of Bright Glo for each 100 uL cells).\nPlates were placed on a plate shaker for 5 min, removing any air bubbles on the surface (which may interfere with proper reads), and then read on an EnVision 2104 Multilabel reader, Emission filter Luminescence 700, barcode 212, WL 400-700 nm.\nData for representative compounds in this assay are shown under the heading “Lucif.”"}, "BCL2": {"tested_on": "BCL2", "assay": "Multigene assay (QuantiGene Plex 2.0), mouse MEF cell line", "format": "cell-based", "conditions": "6 hours post-compound treatment, Table 1b", "in_short": "(§1)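 Branched-DNA multiplex mRNA quantitation with Luminex SAPE fluorescence, taken 6 h after dosing cells with a 7-point compound dilution series. Signals per gene were scaled to DMSO wells and then to a housekeeping transcript (TBP or alpha-tubulin) to give fold change.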"}, "DDIT3": {"tested_on": "DDIT3", "assay": "Multigene assay (QuantiGene Plex 2.0), mouse MEF cell line", "format": "cell-based", "conditions": "6 hours post-compound treatment, Table 1a", "in_short": "as §1"}, "GCLM": {"tested_on": "GCLM", "assay": "Multigene assay (QuantiGene Plex 2.0), mouse MEF cell line", "format": "cell-based", "conditions": "6 hours post-compound treatment, Table 1a", "in_short": "as §1"}, "HMOX": {"tested_on": "HMOX", "assay": "Multigene assay (QuantiGene Plex 2.0), mouse MEF cell line", "format": "cell-based", "conditions": "6 hours post-compound treatment, Table 1b", "in_short": "as §1"}, "HSPA1a": {"tested_on": "HSPA1a", "assay": "Multigene assay (QuantiGene Plex 2.0), mouse MEF cell line", "format": "cell-based", "conditions": "6 hours post-compound treatment, Table 1b", "in_short": "as §1"}, "HspA5": {"tested_on": "HspA5", "assay": "Multigene assay (QuantiGene Plex 2.0), mouse MEF cell line", "format": "cell-based", "conditions": "6 hours post-compound treatment, Table 1b", "in_short": "as §1"}, "TUB1": {"tested_on": "TUB1", "assay": "Multigene assay (QuantiGene Plex 2.0), mouse MEF cell line", "format": "cell-based", "conditions": "6 hours post-compound treatment, Table 1a", "in_short": "as §1"}, "[1]": {"tested_on": "medium spiny neurons in rat brain slices transfected with human mutant huntingtin-based constructs", "assay": "Huntington's disease brain slice-based screening assay", "format": "cell-based", "conditions": "ex vivo rat brain slices transfected with Htt-exon1-Q73 construct; at concentrations from 0.1 uM to 3 uM (tested 0.03, 0.1, 0.3, 1 and 3 uM)", "protocol": "The FIGURE is a bar graph showing the number of healthy medium spiny neurons in rat brain slices for YFP, mN90Q73, KW+SP (positive control) and for [4-(2-isopropoxyphenyl)-2-methyl-5-oxo-7-(thiophen-2-yl)-1,4,5,6,7,8-hexahydroquinoline-3-carbonitrile] exposure at 0.03, 0.1, 0.3, 1 and 3 uM. Hemi-coronal brain slices containing striatum were prepared and transfected with control and huntingtin (Htt) constructs. YFP is Yellow Fluorescence Protein (YFP) plus vector. mN90Q73 is YFP plus the Htt-exon1-Q73 construct. The combination of KW-6002 (50 uM) and SP600125 (30 uM) was used as a positive control.\nSelected compounds that modulated proteostasis network genes were tested in an ex vivo screening assay in which rat brain slices were transfected with human mutant huntingtin-based constructs as described in Reinhart et al., Identification of anti-inflammatory targets for Huntington's disease using a brain slice-based screening assay, Neurobiology of Disease (2011), 43(1), 248-256, the contents of which are expressly incorporated by reference herein. Hemi-coronal brain slices containing striatum were prepared and transfected with control and huntingtin (Htt) constructs.\n50 uM KW-6002 (Istradefylline) in combination with 30 uM SP600125 was used as a positive control. YFP is Yellow Fluorescence Protein (YFP) plus vector. mN90Q73 is YFP plus the Htt-exonl-Q73 construct. […]"}}}
{"smiles": "CC1=C(C#N)C(c2ccccc2OC(C)C)C2=C(CC(c3cccs3)CC2=O)N1", "note": "(stereo not drawn) [drawing 26/Me/CN/o-OCHMe2, 4-(2-isopropoxyphenyl)-2-methyl-5-oxo-7-(thiophen-2-yl)-1,4,5,6,7,8-hexahydroquinoline-3-carbonitrile]", "values": [{"measurement": "Lucif. (luciferase activity induction)", "setting": "firefly luciferase", "value": "+ (+ indicates a induction of greater than 2 fold)"}, {"measurement": "BCL2 gene induction", "setting": "BCL2", "value": "− (− Indicates less than 2 fold induction)"}, {"measurement": "DDIT3 gene induction", "setting": "DDIT3", "value": "− (− Indicates less than 2 fold induction)"}, {"measurement": "GCLM gene induction", "setting": "GCLM", "value": "− (− Indicates less than 2 fold induction)"}, {"measurement": "HMOX gene induction", "setting": "HMOX", "value": "− (− Indicates less than 2 fold induction)"}, {"measurement": "HSPA1a gene induction", "setting": "HSPA1a", "value": "− (− Indicates less than 2 fold induction)"}, {"measurement": "HspA5 gene induction", "setting": "HspA5", "value": "− (− Indicates less than 2 fold induction)"}, {"measurement": "TUB1 gene induction", "setting": "TUB1", "value": "− (− Indicates less than 2 fold induction)"}, {"measurement": "medium spiny neurons viability (number of healthy medium spiny neurons)", "setting": "[1]", "value": "improved medium spiny neurons viability"}]}
